Source: patent US20090209019A1, “Bioartificial Renal Tubule” (TOKAI UNIVERSITY EDUCATIONAL SYSTEM, priority 2006, published 2009)
Like-named read-outs stand apart in the source and are kept apart here. Marks after values point to notes of the source that are not given here.

Tests used:
[1] = system: Madin-Darby canine kidney (MDCK) cells; conditions: cells lacking contact inhibition by action of HGF; cited from earlier work
AP-1 transactivation = conditions: cited from earlier work
LLC-PK1 cells [2] = conditions: DMEM medium containing 50 μg/ml U0126 for two weeks
Source text: In both groups, the medium was circulated outside the hollow fibers of the module in a closed system. […] On the fourth day after culture, three of the modules of each group were fixed with glutaraldehyde and were then observed in vertical cross section by scanning electron microscopy (SEM).

LLC-PK1 cells [3] = conditions: 50 μM U0126 and 1% DMSO in DMEM-HG, 0 day to sixth day
Method: On each transwell filter unit, 2×10^6 Lewis-lung cancer porcine kidney (LLC-PK1) cells, which were cryopreserved porcine proximal renal tubular epithelial cell lines, were seeded. […] The LLC-PK1 cells on 0 day, the first day, the second day, the third day, and the sixth day after seeding were colored with trypan blue and then measured for number for each group. The LLC-PK1 cells were gently washed with a sterilized PBS solution containing no magnesium or calcium and were then trypsin-treated with 1 ml of a trypsin-EDTA solution at 37° C. for 15 minutes. The treated cells (1 ml) were added to 4 ml of DMEM, were colored with trypan blue, and were then measured for number with a hemocytometer. Measurement was performed three times for each group.

LLC-PK1 cells [4] = system: LLC-PK1 cells
Method: In lumens of hollow fibers made of an ethylene-vinyl alcohol (EVAL) copolymer, which forms membranes placed in mini-modules (a membrane area of 65 cm^2), 2×10^8 […] (LLC-PK1) cells, which were porcine proximal renal tubular epithelial cell lines, were seeded. The cells were cultured in such a manner that a DMEM-HG medium was circulated inside and outside the hollow fibers at a rate of 0.25 ml/min. In this operation, the transmembrane pressure was maintained at zero. […] The leakage of urea nitrogen, the leakage of creatinine, the amount of reabsorbed glucose, and the amount of reabsorbed Na^+ were measured for 24 hours.
Method of measuring absorption and leakage: the absorption and leakage are calculated using the following formula:
Absorption rate (leaking rate)=(C0×V0−CI×(VI−VR))/C2V2
wherein C0 represents the concentration of a substance in a discharged external solution, V0 represents the volume of the discharged external solution, CI represents the concentration of the substance in a fed external solution, VI represents the volume of the fed external solution, VR represents the volume of the external solution remaining outside the hollow fibers at the end of an experiment, C2 represents the concentration of the substance in a fed internal solution, and V2 represents the volume of the fed internal solution.

MEN-1 and MEK-2 = conditions: cited from earlier work
LLC-PK1 cells [5] = conditions: 1% DMSO, DMEM-HG, 0 day to third day
Method: On each 6-well plate, 5×10^5 LLC-PK1 cells were seeded. […] Furthermore, two groups of the cells cultured in (4) a DMEM-HG medium and (5) a DMEM-HG medium containing 1% DMSO were checked. The cells on 0 day, the first day, the second day, and the third day after seeding were colored with trypan blue and then measured for number.

[6] = 50 μM U0126, days 3-4, mean ± SEM, n = 4

Method for ERK1/2: In each of 6-well plates, 5×10^5 LLC-PK1 cells were seeded. The cells were divided into three groups on the following day (0 day). […] Then the media (D) and (U) were replaced with a DMEM-HG medium. The cells of each group were further cultured for three days. The cells were subjected to Western blot analysis for ERK1/2 on 0 day, the first day, the second day, the third day, and the sixth day.
The cultured LLC-PK1 cells were used in the form of a cytolytic solution for Western blot analysis. The sampled cells of each group were rinsed with ice-chilled PBS and were then centrifuged at 4° C. for five minutes at 1500 rpm. The centrifugate was collected and then maintained at −80° C.
Proteins were taken from 50 μL of each of ice-chilled cytolytic solutions containing 20 mM Tris-HCl (pH 7.5), 150 mM NaCl, 1 mM Na2EDTA, 1 mM EGTA, 1% Triton, 2.5 mM sodium pyrophosphate, 1 mM β-glycerophosphate, 1 mM Na3VO4 (sodium orthovanadate), and 1 μg/ml leupeptin. The proteins were centrifuged at 4° C. for 15 minutes at 15000×g, whereby soluble proteins were extracted. The protein concentration of each cytolytic solution was measured with a protein assay kit (Protein Assay Rapid Kit; Wako, Osaka, Japan). […] Proteins (20 μg) in each LLC-PK1 cytolytic solution were analyzed with SDS-PAGE (polyacrylamide gel electrophoresis) using a 12.5% polyacrylamide gel (e-PAGEL; ATTO, Tokyo, Japan). […]

Row | SMILES | contact inhibition of MDCK cells [1] | AP-1 transactivation (AP-1 transactivation) | maintenance of confluent monolayer in hollow fibers (SEM), FIG. 5 legend (LLC-PK1 cells [2]) | change in number of LLC-PK1 cells (LLC-PK1 cells [3]) | amount of reabsorbed Na+ compared with control group (LLC-PK1 cells [4]; 50 μM U0126) | amount of reabsorbed glucose compared with control group (LLC-PK1 cells [4]; 50 μM U0126) | leakage of creatinine (Cr) compared with control group (LLC-PK1 cells [4]; 50 μM U0126) | leakage of urea nitrogen (UN) compared with control group (LLC-PK1 cells [4]; 50 μM U0126) | Leakage Cr (LLC-PK1 cells [4]; [6]) | Leakage UN (LLC-PK1 cells [4]; [6]) | Reabsorption Glucose (LLC-PK1 cells [4]; [6]) | Reabsorption Na+ (LLC-PK1 cells [4]; [6]) | inhibition of MEK-1 and MEK-2 (MEN-1 and MEK-2) | change in number of LLC-PK1 cells (LLC-PK1 cells [5]; 10 μM) | change in number of LLC-PK1 cells (LLC-PK1 cells [5]; 30 μM) | change in number of LLC-PK1 cells (LLC-PK1 cells [5]; 50 μM) | activated ERK1/2 (ERK1/2; 50 μM U0126 and 1% DMSO, first, second and third day) | activated ERK1/2 after replacing the medium with U0126-free DMEM-HG (ERK1/2; sixth day, three days after removal of U0126)
1 | COc1cccc(-c2cc(=O)c3ccccc3o2)c1N [PD-98059] | restoring the contact inhibition |  |  |  |  |  |  |  |  |  |  |  |  |  |  |  |  | 
2 | N#CC(=C(N)Sc1ccccc1N)C(C#N)=C(N)Sc1ccccc1N [U0126, 1,4-diamino-2,3-dicyano-1,4-bis[2-aminophenylthio]butadiene] | restoring the contact inhibition | suppressor of AP-1 transactivation | confluent monolayers are substantially maintained | prevented from significantly increasing in number | significantly greater | greater than that in the control group, though there is no significant difference | less than that in the control group, though there is no significant difference | significantly less | 3.3 ± 0.5% | 3.6 ± 0.7^b % | 63.9 ± 19.7 mg/day | 1.26 ± 0.10^b mEq/day | direct inhibition | not sufficiently prevented from increasing in number | clearly prevented from proliferating | clearly prevented from proliferating | suppressed | Activated ERK1/2 is expressed
